Measured values taken from patent US12312327B2, “Crystal of 1,3,5-triazine derivative or solvate thereof and method for producing same” (Shionogi & Co., Ltd., priority 2019, dated 2025).

How the values were obtained:
[1] = Solid stability test (80° C. hermetically sealed, one week, HPLC Method D); type: physicochemical; settings: for Residual ratio (%): sealed storage, content by HPLC; for Types of analogous substances generated: 80° C. hermetically sealed, one week
Description: Column: Cadenza CD-C18, φ 3.0×150 mm, 3 μm
Flow rate: 0.55 mL per minute
UV detection wavelength: 262 nm
Mobile phase A: 0.1% TFA aqueous solution
Mobile phase B: Acetonitrile
5 mg sample (n=4) was precisely weighed in 2 mL vial, capped, and stored at a predetermined temperature (sealed storage). Then, each sample was taken out after storage for a predetermined period, and stability (content) was evaluated.
80° C. hermetically sealed
Each vial was washed out into a 25 mL volumetric flask.
Diluting medium: acetonitrile/water=1/1

[2] = Flowability test (Compressibility index and Hausner ratio); type: physicochemical; settings: for Compressibility index (%): (V0−Vf)/V0×100; for Hausner ratio: V0/Vf; for V0 (mL), loose bulk volume: about 10 g sample in 50 mL measuring cylinder, no compaction; for V0 (mL), loose bulk volume / Vf (mL), final tap volume: average of three; for Vf (mL), final tap volume: about 10 g sample, tapped until volume difference <= 0.5 mL
Description: 1) About 10 g of a sample was gently put into a 50 mL measuring cylinder, and the sample amount was measured.
2) The upper surface of the powder layer was carefully leveled without compaction, and the loose bulk volume (V0) was read.
3) The measuring cylinder was mounted on a support stand of a powder tester (PT-X type, Hosokawa Micron Corporation).
4) The powder sample was tapped 10 times, 500 times, 1250 times, 2500 times and the corresponding bulk volumes (V10, V500, V1250, V2500) were read.
5) The process was ended when the volume difference was equal to or less than the minimum scale (0.5 mL), and the final bulk volume was defined as the final tap volume (Vf).
6) The steps 1) to 5) were repeated three times and measured, and the average values were adopted for calculation of the Compressibility index and the Hausner ratio.
Compressibility index=(V0−Vf)/V0×100 Hausner ratio=V0/Vf

SMILES | Peak area (%) of analogous substance, retention time 15.5 min ([1]; 80° C. 1W) | Purity (%) ([1]; 80° C. 1W) | Residual ratio (%) ([1]; 80° C. 1W) | Types of analogous substances generated [1] | Peak area (%) of analogous substance, retention time 15.5 min ([1]; Initial) | Purity (%) ([1]; Initial) | Compressibility index (%) [2] | Hausner ratio [2] | V0 (mL), loose bulk volume [2] | Vf (mL), final tap volume [2] | Peak area (%) of analogous substance, retention time 3 min ([1]; 80° C. 1W) | also measured
C[C@@H](Cn1c(=O)[nH]/c(=N\c2ccc(Oc3ccccn3)cc2)n(Cc2ccc(Cl)cc2)c1=O)C(=O)O [Anhydrous crystal Form I of compound represented by Formula ] | 0.16% | 99.77% | 99.79% | three types | 0.16% | 99.76% | 25.4% | 1.3 | 19.0 mL | 14.2 mL | – | Peak area (%) of analogous substance, retention time 17.1 min ([1]; 80° C. 1W): 0.04%; Peak area (%) of analogous substance, retention time 20.6 min ([1]; 80° C. 1W): 0.03%; Peak area (%) of analogous substance, retention time 17.1 min ([1]; Initial): 0.05%; Peak area (%) of analogous substance, retention time 20.6 min ([1]; Initial): 0.03%; Flowability compared with the other crystal forms ([2]; from Compressibility index, Table 15): better flowability as compared with the other two crystal forms
C[C@@H](Cn1c(=O)[nH]/c(=N\c2ccc(Oc3ccccn3)cc2)n(Cc2ccc(Cl)cc2)c1=O)C(=O)O [Dihydrate crystal of compound represented by Formula (I)] | 0.09% | 99.86% | 99.13% | two types | 0.09% | 99.91% | 35.9% | 1.6 | 30.7 mL | 19.7 mL | 0.05% | –
C[C@@H](Cn1c(=O)[nH]/c(=N\c2ccc(Oc3ccccn3)cc2)n(Cc2ccc(Cl)cc2)c1=O)C(=O)O [Ethyl acetate/hexane solvate crystal of compound represented] [reference compound] | – | 99.71% | 99.03% | five types | – | 99.71% | 36.7% | 1.6 | 36.8 mL | 23.3 mL | 0.06% | Peak area (%) of analogous substance, retention time 5.8 min ([1]; 80° C. 1W): 0.01%; Peak area (%) of analogous substance, retention time 10.5 min ([1]; 80° C. 1W): 0.14%; Peak area (%) of analogous substance, retention time 14 min ([1]; 80° C. 1W): 0.04%; Peak area (%) of analogous substance, retention time 16.9 min ([1]; 80° C. 1W): 0.03%; Peak area (%) of analogous substance, retention time 3 min ([1]; Initial): 0.06%; Peak area (%) of analogous substance, retention time 5.8 min ([1]; Initial): 0.01%; Peak area (%) of analogous substance, retention time 10.5 min ([1]; Initial): 0.15%; Peak area (%) of analogous substance, retention time 14 min ([1]; Initial): 0.04%; Peak area (%) of analogous substance, retention time 16.9 min ([1]; Initial): 0.04%
